Earlier results, collected in patent US6907319B2, “System for the application of pesticides” (Syngenta Crop Protection, Inc., priority 2000, dated 2005).

How the values were obtained:
[1] = increasing the soil temperature
[2] = system: potato; settings: cool temperatures (13° C. day/4° C. night) compared with 24° C./13° C.

Row | SMILES | reduction of the maximum phytotoxicity threshold [1] [fold] | also measured
1 | CCNc1nc(Cl)nc(NC(C)C)n1 [atrazine] | 3 | –
2 | O=C(O)CNCP(=O)(O)O [glyphosate] | – | phytotoxicity of glyphosate/ha, less than at 24° C./13° C. [2]: 50%
3 | Nc1c(Cl)c(Cl)nc(C(=O)O)c1Cl [picloram] | 1.5 | –
4 | Cc1[nH]c(=O)n(C(C)(C)C)c(=O)c1Cl [terbacil] | 2.5 | –
5 | COC(=O)c1sccc1S(=O)(=O)NC(=O)Nc1nc(C)nc(OC)n1 [thiameturon-methyl] | – | activity with increasing rain (increasing of rain): reduces the activity; performance with increasing temperature and humidity (increasing temperature and humidity): markedly improved
